In patent US7276576B1, “Mammalian ICYP (iodocyanopindolol) receptor and its applications” (Dainippon Sumitomo Pharma Co., Ltd., priority 1996, dated 2007):
Several values for one entry are separate records, joined by “and”; a condition that tells them apart may be missing. Identical values can stand only once. Counter-ions that a name gives are not always drawn. Like-named read-outs stand apart in the source and are kept apart here. Values belong to the molecule of their own block, whether it stands above or below them.

Assays:
[1] = system: rat colon smooth muscle segment; assay: Relaxation of KCl-induced tonus in rat colon segment (organ bath); conditions: for Slope of Schild plot for cyanopindolol, rat colon / pA2 for cyanopindolol, rat colon / IA, rat colon relaxation / EC50: 10 μM phentolamine and 1 μM propranolol; for IA, rat colon relaxation: relative to isoproterenol; for IA, rat colon relaxation / EC50: mean ± SEM; for EC50: Rattus norvegicus, relaxation of KCl (100 mM)-induced tonus, read-out: pD2, rat colon relaxation (converted)
Procedure: Rat colon segment (2 cm) was suspended in organ bath containing 10 ml modified-Tyrode solution (Sugasawa T. et al. Eur. J. Pharmacol., 1992, 216, 207-215). The Tyrode solution contained 0.5 μM atropine, 0.5 μM desmethylimipramine, 30 μM hydrocortisone, 30 μM ascorbic acid, 10 μM phentolamine and 1 μM propranolol throughout study, in order to inhibit spontaneous contraction, neuronal and extra-neuronal uptake of norepinephrine, oxidation of catecholamines, possible α, β1- and β2-AR effects, respectively.
The relaxant action of agonists was determined by measuring relaxation of KCl (100 mM)-induced tonus evoked by cumulative addition of the agonists as described previously (Sugasawa T. et al. cited above). In the case of testing the effect of cyanopindolol, it was added 5-10 min before the addition of agonist.
(§1) Agonist concentration-ratios (CR) were determined from the EC50 values of the concentration-response curves of agonists with or without cyanopindolol, according to the method of Arunlakshana et al., 1959.
(§2) The EC50 values were calculated using the computer program, InPlot™.

[2] = molecular target: T1, [125I]-ICYP specific binding site (SMBP, SM-11044 binding protein) in rat colon smooth muscle membranes (Rattus norvegicus, UniProt A0A8I6A822); assay: [125I]-ICYP saturation and competition binding to rat colon membranes (Example 2)
T1 construct: Membranes from colon smooth muscles were prepared as essentially described by Ek et al., 1986; from tissue
T1 sequence (A0A8I6A822 27-587): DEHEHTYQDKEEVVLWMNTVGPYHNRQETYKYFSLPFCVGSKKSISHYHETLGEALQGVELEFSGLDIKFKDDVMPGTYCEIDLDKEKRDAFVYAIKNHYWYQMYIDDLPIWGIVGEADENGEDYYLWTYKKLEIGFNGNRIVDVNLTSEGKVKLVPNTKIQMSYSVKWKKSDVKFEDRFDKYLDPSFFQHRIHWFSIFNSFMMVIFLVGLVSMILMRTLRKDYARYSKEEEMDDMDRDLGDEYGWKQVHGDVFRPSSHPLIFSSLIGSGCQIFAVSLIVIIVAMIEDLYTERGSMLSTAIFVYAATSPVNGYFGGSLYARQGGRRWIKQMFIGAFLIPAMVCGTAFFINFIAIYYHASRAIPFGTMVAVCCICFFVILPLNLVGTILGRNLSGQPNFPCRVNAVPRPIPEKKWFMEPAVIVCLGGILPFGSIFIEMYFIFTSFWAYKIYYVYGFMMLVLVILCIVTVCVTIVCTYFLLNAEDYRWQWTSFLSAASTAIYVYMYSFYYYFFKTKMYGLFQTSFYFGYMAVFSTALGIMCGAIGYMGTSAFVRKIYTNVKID
Procedure: Incubations were carried out at 37° C. for 30 min in a shaking water-bath incubator and terminated by addition of 4 ml of ice-cold Tris-saline followed by rapid filtration under vacuum on Whatman GF/B filter presoaked in Tris-saline containing 0.1% polyethyleneimine (pH 7.4). The filters were washed three times with 4 ml of ice-cold Tris-saline, transferred to plastic tubes and counted in a γ-counter.
Hill coefficient was calculated by linear regression using saturation experiment data. Pseudo-Hill coefficient and IC50 were determined by the computer program, InPlot™ (GraphPad Software, CA, USA).

[3] = system: atypical β-AR in rat colon; conditions: under blockade of β1- and β2-AR effects; McLaughlin, MacDonald et al.; cited from earlier work
rat white adipocytes = assay: Lipolysis in rat white adipocytes; format: cell-based; conditions: for Slope of Schild plot for cyanopindolol, rat white adipocytes / pA2 for cyanopindolol, rat white adipocytes / IA, rat white adipocyte lipolysis / EC50: 10 μM phentolamine and 1 μM propranolol; for IA, rat white adipocyte lipolysis: relative to isoproterenol; for IA, rat white adipocyte lipolysis / EC50: mean ± SEM; for EC50: Rattus norvegicus, Adipocyte, read-out: pD2, rat white adipocyte lipolysis (converted)
Procedure: White adipocytes were isolated from epididymal fat pads of male Wistar rats (190-230 g) and lipolysis was determined according to the previous report (Sugasawa T. et al. cited above). The cells were preincubated for 5 min at 37° C. in the presence of 30 μM ascorbic acid, 10 μM phentolamine and 1 μM propranolol.
Agonists were then applied and incubated for 90 min. In the case of testing the effect of cyanopindolol, it was added 5 min before the addition of agonist.
as §1, §2

guinea pig eosinophil = assay: Leukotriene B4 induced guinea pig eosinophil chemotaxis; format: cell-based
[4] = system: [125I]-ICYP specific binding site in rat skeletal muscle membranes; assay: [125I]-ICYP binding to rat skeletal muscle membranes; conditions: 1 nM [125I]-ICYP; 10 μM 5-HT, 10 μM phentolamine and 20 μM propranolol
Procedure: Membranes from the colon smooth muscle and from skeletal muscle were prepared from male Wistar rats (300-360 g) as essentially mentioned in example 1.
Saturation binding studies were performed in a final volume of 200 μl of Tris-saline containing 50 μg membrane proteins and different concentrations ([…]) of [^125I]-ICYP, supplemented with 10 μM serotonine (5-HT), 10 μM phentolamine, 20 μM propranolol and 1.1 mM ascorbic acid (pH 7.4), to block possible 5-HT receptors, ARs and oxidation of catecholamines, respectively. The [^125I]-ICYP was used after removing methyl alcohol by compressed air to avoid the influence of the solvent. […] The filters were washed three times with 4 ml of ice-cold Tris-saline, transferred to plastic tubes and counted in a γ-counter.
Competition assays were performed against 1 nM [^125I]-ICYP. Non-specific binding was determined in the presence of 100 μM SM-11044. The inhibition constant, Ki, of a ligand was calculated using the equation described by Cheng and Prusoff (Biochem. Pharmacol., 1973, 22, 3099-3108). Hill coefficient was calculated by linear regression using saturation experiment data. Pseudo-Hill coefficient and IC50 were determined by the computer program, InPlot™ (GraphPad Software, CA, USA).

guinea pig ileum = assay: Guinea pig ileum relaxation of KCl-induced tonus; conditions: compared with rat white adipocyte lipolysis
[5] = molecular target: rat SM-11044 binding protein (Ro-SMBP) of rat colon smooth muscle membranes (rat) (UniProt D3ZUD8); assay: WGA-sepharose chromatography, elution with N-acetyl-D-glucosamine
[6] = agonist (−)-isoproterenol, listed as Cyanopindolol
[7] = agonist (−)-isoproterenol, listed as cyanopindolol
[8] = agonist SM-11044, listed as Cyanopindolol
[9] = agonist SM-11044, listed as cyanopindolol
[10] = up to the concentration of 10 μM
[11] = 1 nM [125I]-ICYP, 10 μM 5-HT, 10 μM phentolamine and 20 μM propranolol, read-out: Ki on [125I]-ICYP specific binding to rat colon membranes

Molecule: CC(C)(C)NCC(O)COc1cccc2[nH]c(C#N)cc12 (racemic) [(±)-cyanopindolol, cyanopindolol]
Slope of Schild plot for cyanopindolol, rat colon [1, 6]: 1.03
pA2 for cyanopindolol, rat colon [1, 6]: 7.65
Slope of Schild plot for cyanopindolol, rat colon [1, 7]: 1.03 ± 0.08
pA2 for cyanopindolol, rat colon [1, 7]: 7.65 ± 0.48
Slope of Schild plot for cyanopindolol, rat colon [1, 8]: 0.78
pA2 for cyanopindolol, rat colon [1, 8]: 8.31
Slope of Schild plot for cyanopindolol, rat colon [1, 9]: 0.78 and 0.78 ± 0.11
pA2 for cyanopindolol, rat colon [1, 9]: 8.31 and 8.31 ± 0.88
Effect of the compound itself on the degree of tonus induced by KCl [1, 10]: had no effect
Ki [2]: 0.11 µM
Pseudo-Hill coefficient ([2]; 1 nM [125I]-ICYP, 10 μM 5-HT, 10 μM phentolamine and 20 μM propranolol): 1.01 ± 0.14
pA2 against propranolol-resistant responses of isoproterenol in rat colon [3]: 7.12
Slope of Schild plot for cyanopindolol, rat white adipocytes (rat white adipocytes; [6]): 1.08
pA2 for cyanopindolol, rat white adipocytes (rat white adipocytes; [6]): 7.44
Slope of Schild plot for cyanopindolol, rat white adipocytes (rat white adipocytes; [7]): 1.08 ± 0.10
pA2 for cyanopindolol, rat white adipocytes (rat white adipocytes; [7]): 7.44 ± 0.61
Slope of Schild plot for cyanopindolol, rat white adipocytes (rat white adipocytes; [8]): 0.96
pA2 for cyanopindolol, rat white adipocytes (rat white adipocytes; [8]): 7.32
Slope of Schild plot for cyanopindolol, rat white adipocytes (rat white adipocytes; [9]): 0.96 ± 0.21
pA2 for cyanopindolol, rat white adipocytes (rat white adipocytes; [9]): 7.32 ± 1.51
Stimulation of lipolysis by the compound itself (rat white adipocytes; [10]): did not stimulate lipolysis

EC50 [1]: 229 nM
Ki [2, 11]: > 1000 µM
Displacement of [125I]-ICYP specific binding ([2]; up to the concentration of 1 mM): not displaced
EC50 (rat white adipocytes): 1380 nM
Molecule: CC(C)NC[C@H](O)c1ccc(O)c(O)c1 (single isomer, unassigned) [(−)-isoproterenol, isoproterenol]
IA, rat colon relaxation [1]: 1.00 ± 0.063
Inhibition of leukotriene B4 induced guinea pig eosinophil chemotaxis (guinea pig eosinophil): no such effect
IA, rat white adipocyte lipolysis (rat white adipocytes): 1.00 ± 0.037
Displacement of [125I]-ICYP specific binding to skeletal muscle membranes [4]: not displaced by isoproterenol up to concentrations of 10^−4 M

EC50 [1]: 51.3 nM
Pseudo-Hill coefficient ([2]; 1 nM [125I]-ICYP, 10 μM 5-HT, 10 μM phentolamine and 20 μM propranolol, hydrobromide): 1.00 ± 0.12
Ki [2, 11]: 1.8 ± 0.3 µM
EC50 (rat white adipocytes): 1100 nM
Molecule: O=C([C@@H](NCCCc1ccc(F)cc1)[C@H](O)c1ccc(O)c(O)c1)N1CCCC1 [SM-11044, (L)-threo-3-(3,4-dihydroxyphenyl)-N-[3-(4-fluorophenyl)propyl]serine pyrrolidine amide hydrobromide]
IA, rat colon relaxation [1]: 1.48 ± 0.166
Inhibition of leukotriene B4 induced guinea pig eosinophil chemotaxis (guinea pig eosinophil): inhibiting
Relaxation of KCl-induced tonus in guinea pig ileum (in words) (guinea pig ileum): more efficiently than rat white adipocyte lipolysis
IA, rat white adipocyte lipolysis (rat white adipocytes): 0.86 ± 0.054
Displacement of [125I]-ICYP specific binding to skeletal muscle membranes [4]: displaced the binding in a concentration-dependent manner

percent of the radiolabeled material eluted by the specific sugar [5]: 2.3%
B1: Wheat Germ Agglutinine (WGA)-sepharose 6 MB (protein, UniProt P10968 27-197, looked up)
chain: QRCGEQGSNMECPNNLCCSQYGYCGMGGDYCGKGCQNGACWTSKRCGSQAGGATCTNNQCCSQYGYCGFGAEYCGAGCQGGPCRADIKCGSQAGGKLCPNNLCCSQWGFCGLGSEFCGGGCQSGACSTDKPCGKDAGGRVCTNNYCCSKWGSCGIGPGYCGAGCQSGGCDG
